{
  "source": "patent US8889411B2",
  "about": "“Modulation of stem and progenitor cell differentiation, assays, and uses thereof” (Anthrogenesis Corporation, priority 2002, dated 2014)",
  "key": {"[1]": {"system": "Purified human cord blood CD34+ cells", "experiment": "Monocyte production: CD34/CD14 staining of cord blood CD34+ cells cultured 14 days with cytokines", "assay_type": "cell-based", "procedure": "Purified human cord blood CD34+ cells (greater than 90% CD34+) were cultured in 20% FCS IMDM medium supplemented with cytokines (IL3, IL6, G-CSF, KL and Epo) at 4×10^4 cells/ml for 14 days at 37° C. in a humidified 5% CO2 incubator. The experimental groups consisted of a group in which (i) no DMSO or chemical compounds were added (“None”), (ii) DMSO only, (iii) Thalidomide dissolved in DMSO, (iv) ACTIMID™ dissolved in DMSO, and (v) REVIMID™ dissolved in DMSO. Aliquots of cells were harvested and stained with CD34-PE conjugated monoclonal antibody and CD14-FITC conjugated monoclonal antibody."}, "[2]": {"system": "Cord blood CD34+ hematopoietic progenitor cells", "experiment": "Colony forming unit (CFU) generation from cord blood CD34+ cells", "assay_type": "cell-based, human", "conditions": "IL-3, G-CSF, kit-ligand, vs DMSO", "procedure": "FIG. 1. Bar graph indicating results of culturing cord blood CD34+ cells in the presence of Thalidomide (THD), ACTIMID™, and REVIMID™ at concentrations of 1 μg/ml and 10 μg/ml. An equal volume of DMSO was used as a negative control. Hematopoietic colonies of burst forming units-erythroid (BFU-E), colony forming units-erythroid (CFU-E), colony forming units-granulocyte macrophage (CFU-GM) and total numbers of colonies (CFU-Total) were scored under the light microscope at day 14 of culture. Y-axis: numbers of colonies. See Section 6.1 for details.\nCord blood CD34+ hematopoietic progenitor cells were plated in 96 well cultivation dishes at a density of 1000 cells per well in IMDM supplemented with 20% fetal calf serum and cytokines (IL-3, G-CSF and kit-ligand (R&D Systems, Inc.) The cells were exposed to Thalidomide (Thal), ACTIMID™ and REVIMID™, or DMSO (a control compound), and allowed to culture for 6 days. […] After culturing, cells were stained and sorted with a fluorescence activated. cell sorter (FACS). 400 μL of stained cells were harvested and diluted to 1.0 ml with 1% fetal calf serum in phosphate buffered saline (PBS). Cells were counted to determine the effect of modulation of stem cell differentiation."}, "[3]": {"system": "human cord blood CD45+ cells", "experiment": "Flow cytograms of cord blood CD45+ cells cultured 14 days with IL3, IL6, G-CSF, Epo and KL", "assay_type": "cell-based", "conditions": "5 μg/ml, FIG. 10", "procedure": "(§1) FIGS. 9(A-F). Flow cytograms. […] Cord blood CD45+ cells were cultured for 14 days with cytokines IL3, IL6, G-CSF, Epo and KL. Percentages indicated on each cytogram indicate the percentage of the cell population expressing a particular combination of markers. A. Control, immunoglobulin (Ig). B. Control, no compound added. C. DMSO (5 μg/ml). D. Thal (5 μg/ml). E. ACTIMID™ (5 μg/ml). F. REVIMID™ (5 μg/ml). X-axis: relative intensity of CD38 (FL1-H) staining. Y-axis: relative intensity of CD19 (FL2-H) staining. See Section 6.3 for details.\nas §1, with “10(A-F).” for “9(A-F).”, “CXCR5” for “CD38”, “CD34” for “CD19”"}, "[4]": {"system": "Human Cord Blood MNC Cells", "experiment": "FACS analysis of cryopreserved and thawed cord blood MNCs after 1 week of culture with cytokines", "assay_type": "cell-based", "conditions": "5 μg in 1.7 μl DMSO, average +/− SD of three wells", "procedure": "Cord blood MNCs that had been cryopreserved and thawed using standard methods were isolated by standard Ficoll separation method and cultured in 24 well-plate at 0.5×10^6 cells/ml in 20% FCS-IMDM with cytokines (1L6, KL and G-CSF 10 ng/ml each) in triplicates. The experimental groups were None (cytokines only), DMSO (1.7 μl), ACTIMID™ (5.0 μg in 1.7 μl DMSO), REVIMID™ (5 μg in 1.7 μl DMSO). The cultured cells were harvested and analyzed by FACS staining after 1 week of culture. The data are expressed as an average +/− SD from three independent wells."}, "[5]": {"system": "Human Cord Blood CD34+ Cells", "experiment": "FACS analysis of proliferation and differentiation of cord blood CD34+ cells cultured with IL3, G-CSF and Kit-ligand", "assay_type": "cell-based", "conditions": "for CD11b+ Cell Population / CD34+CD38+ Cell Population / CD34+CD38− Cell Population: 7 days", "procedure": "CB CD34+ cells were initiated at 4×10^4 cells/ml in a 24-well plate in 20% FCS IMDM (fetal calf serum/Iscove's Modified Dulbecco's Medium) supplemented with cytokines (1 L3, GCSF and Kit-ligand) (R&D Systems, Inc.). Thalidomide (Thal), ACTIMID™ or REVIMID™ were included in the culture at three different concentrations: 5 μg/ml, 1 μg/ml and 0.3 μg/ml. The same volumes of DMSO were used as controls. A negative control without, any compound was also used (indicated by “none” in FIGS. 3-7). Cells were cultured at 37° C. and 5% CO2 in a humidified incubator for 7 days. Cells were then harvested from each well.\nThe total cell number from each well was determined by counting in a CELL-DYN® 1700 (Abbott Diagnostics) and the expression of CXCR4, CD45, CD34, CD38, CD 1 lb and Gly-A expression was analyzed by FACS (fluorescence-activated cell sorting) staining (FIGS. 3-7).\nCB cells from two different donors (CB2276 and CB2417) were cultured, assayed and analyzed separately (Table 1)."}},
  "data": [
    {"smiles": "Nc1cccc2c1CN(C1CCC(=O)NC1=O)C2=O", "note": "(stereo not drawn) [REVIMID™, 3-(4-amino-1-oxo-1,3-dihydro-isoindol-2-yl)-piperidine-2,6-dione]", "values": [
      {"measurement": "percentage of monocyte lineage cells", "setting": "[1]; 5 μg/ml, compared to control, FIG. 13", "result": "increase"},
      {"measurement": "percentage of CD34+ cells of the total cells", "setting": "[1]; 14 days, IL3, IL6, G-CSF, KL and Epo, compound dissolved in DMSO", "result": 7.1, "unit": "%"},
      {"measurement": "production of monocytes (CD14+ cells)", "setting": "[1]; 14 days, relative to DMSO-treated group", "result": "overcome"},
      {"measurement": "generation of erythropoietic colonies (BFU-E and CFU-E)", "setting": "[2]", "result": "suppress"},
      {"measurement": "generation of leukocyte and platelet forming colonies (CFU-GM)", "setting": "[2]", "result": "augmenting"},
      {"measurement": "total colony forming unit (CFU-Total) production", "setting": "[2]", "result": "enhancing"},
      {"measurement": "repression of CXCR5 produced by exposure to DMSO", "setting": "[3]", "result": "overcomes the repression"},
      {"measurement": "CD34(%)", "setting": "[4]", "result": "2.34 +/− 0.22%"},
      {"measurement": "CD34+CD38−(%)", "setting": "[4]", "result": "0.80 +/− 0.29%"},
      {"measurement": "CXCR4+CD45+(%)", "setting": "[4]", "result": "3.6 +/− 0.9%"},
      {"measurement": "CXCR4+CD45−(%)", "setting": "[4]", "result": "3.28 +/− 0.89%"},
      {"measurement": "Total CD34+ cells", "setting": "[4]", "result": "7166 +/− 802"},
      {"measurement": "Total cells (1 × 10^6)", "setting": "[4]", "result": "0.30 +/− 0 1 × 10^6"},
      {"measurement": "expression of CXCR4", "setting": "[5]; FACS analysis of surface proteins", "result": "inhibitory effect"},
      {"measurement": "yield of cells", "setting": "[5]; IL-3, KL and G-CSF, compared with the DMSO control", "result": "slightly higher number of cells"},
      {"measurement": "effect on the proliferation of CD34+ cells", "setting": "[5]; IL-3, KL and G-CSF, compared with the negative control (none)", "result": "do not have a significant effect"},
      {"measurement": "CD11b+ Cell Population", "setting": "[5]; donor CB2276, 0.3 μg/ml", "result": 13.3, "unit": "%"},
      {"measurement": "CD34+CD38+ Cell Population", "setting": "[5]; donor CB2276, 0.3 μg/ml", "result": 1.7},
      {"measurement": "CD34+CD38− Cell Population", "setting": "[5]; donor CB2276, 0.3 μg/ml", "result": 9.8},
      {"measurement": "CD11b+ Cell Population", "setting": "[5]; donor CB2276, 1 μg/ml", "result": 8.6, "unit": "%"},
      {"measurement": "CD34+CD38+ Cell Population", "setting": "[5]; donor CB2276, 1 μg/ml", "result": 1},
      {"measurement": "CD34+CD38− Cell Population", "setting": "[5]; donor CB2276, 1 μg/ml", "result": 10.3},
      {"measurement": "CD11b+ Cell Population", "setting": "[5]; donor CB2276, 5 μg/ml", "result": 4.8, "unit": "%"},
      {"measurement": "CD34+CD38+ Cell Population", "setting": "[5]; donor CB2276, 5 μg/ml", "result": 0.3},
      {"measurement": "CD34+CD38− Cell Population", "setting": "[5]; donor CB2276, 5 μg/ml", "result": 4.0},
      {"measurement": "CD11b+ Cell Population", "setting": "[5]; donor CB2417, 0.3 μg/ml", "result": 11.2, "unit": "%"},
      {"measurement": "CD34+CD38+ Cell Population", "setting": "[5]; donor CB2417, 0.3 μg/ml", "result": 0.9},
      {"measurement": "CD34+CD38− Cell Population", "setting": "[5]; donor CB2417, 0.3 μg/ml", "result": 3.4},
      {"measurement": "CD11b+ Cell Population", "setting": "[5]; donor CB2417, 1 μg/ml", "result": 8.2, "unit": "%"},
      {"measurement": "CD34+CD38+ Cell Population", "setting": "[5]; donor CB2417, 1 μg/ml", "result": 0.6},
      {"measurement": "CD34+CD38− Cell Population", "setting": "[5]; donor CB2417, 1 μg/ml", "result": 3.8},
      {"measurement": "CD11b+ Cell Population", "setting": "[5]; donor CB2417, 5 μg/ml", "result": 5.5, "unit": "%"},
      {"measurement": "CD34+CD38+ Cell Population", "setting": "[5]; donor CB2417, 5 μg/ml", "result": 0.3},
      {"measurement": "CD34+CD38− Cell Population", "setting": "[5]; donor CB2417, 5 μg/ml", "result": 4.2},
      {"measurement": "CD38 status of the majority of CD34+ and CD34− cells", "setting": "[5]; treated cell populations", "result": "CD38−"},
      {"measurement": "level of CD11b expression by mean immunofluorescence (MIF)", "setting": "[5]; treated cells", "result": "decreased"}
    ]}
  ]
}
